# Measured values published in patent publication US10954214B2 (Janssen Pharmaceutica NV, priority 2016, dated 2021).
# How the values were obtained:
# [1] = tested on: IL6 secretion by TMD8 ABC-DLBCL cells; assay: Human IL6 Mesoscale assay (TMD-8); assay type: cell-based; settings: Homo sapiens, TMD8; TMD-8 cells, 24 h
# Procedure, shortened: (§1)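 After 24 h at 37 °C with test compounds (15 μM down to 58.6 nM, 9 twofold steps, 0.3% DMSO), IL6 and IL10 secreted by 100,000 OCI-LY3 or TMD8 cells per well were measured in supernatants with a Mesoscale immunoassay. Data were scaled between DMSO wells (high) and RN486 treatment (low).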
# [2] = tested on: IL10 secretion by TMD8 ABC-DLBCL cells; assay: Human IL10 Mesoscale assay (TMD-8); assay type: cell-based; settings: Homo sapiens, TMD8; TMD-8 cells, 24 h
# Procedure, shortened: as §1
# [3] = target: full-length MALT1 protein (Strep-MALT1(1-824)-His) (Homo sapiens (Human), UniProt Q9UDY8); assay: MALT1 Biochemical Protease Assay (Ac-LRSR-AMC substrate); settings: 10 nM FL MALT1, 200 μM Ac-LRSR-AMC, 4 h at RT; read-out: MALT1_Biochemical activity (Ac-LRSR-amc) IC50
# full-length MALT1 protein (Strep-MALT1(1-824)-His), sequence (Q9UDY8 whole entry): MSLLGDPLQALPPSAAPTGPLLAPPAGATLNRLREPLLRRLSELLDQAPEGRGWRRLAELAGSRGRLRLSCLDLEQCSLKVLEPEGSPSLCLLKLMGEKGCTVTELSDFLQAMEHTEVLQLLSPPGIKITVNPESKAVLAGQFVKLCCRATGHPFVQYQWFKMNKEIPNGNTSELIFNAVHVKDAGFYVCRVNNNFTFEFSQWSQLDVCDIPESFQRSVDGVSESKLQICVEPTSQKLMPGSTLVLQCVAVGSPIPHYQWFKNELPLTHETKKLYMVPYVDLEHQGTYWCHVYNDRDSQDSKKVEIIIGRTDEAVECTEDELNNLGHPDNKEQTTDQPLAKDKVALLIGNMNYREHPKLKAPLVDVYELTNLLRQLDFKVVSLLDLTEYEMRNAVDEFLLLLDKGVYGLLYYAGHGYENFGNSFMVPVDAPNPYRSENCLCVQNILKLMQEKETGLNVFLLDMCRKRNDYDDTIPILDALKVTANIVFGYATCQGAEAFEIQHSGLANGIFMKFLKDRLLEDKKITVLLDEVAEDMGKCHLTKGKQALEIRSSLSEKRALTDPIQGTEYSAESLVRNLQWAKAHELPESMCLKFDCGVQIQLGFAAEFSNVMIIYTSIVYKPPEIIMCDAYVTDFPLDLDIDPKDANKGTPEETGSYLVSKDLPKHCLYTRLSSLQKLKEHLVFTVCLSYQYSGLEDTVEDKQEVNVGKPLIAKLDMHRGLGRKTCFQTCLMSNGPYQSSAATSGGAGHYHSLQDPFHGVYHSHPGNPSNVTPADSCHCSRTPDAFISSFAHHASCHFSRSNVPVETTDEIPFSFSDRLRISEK
# Procedure, shortened: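 Fluorescence from AMC release off the quenched LRSR substrate was read after a 4 h reaction at RT. Values were normalised to no-enzyme and uninhibited controls and fitted for IC50 and Hill coefficient.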
Compound,IC50 [1] [µM],IC50 [2] [nM],IC50 [3] [nM]
"Cc1cc(NC(=O)c2cnn(-c3cccc4c(=O)[nH]ccc34)c2C(F)(F)F)c(C)nc1-n1nccn1 [Cpd 161, N-(2,5-dimethyl-6-(2H-1,2,3-triazol-2-yl)pyridin-3-yl)-1-(1-oxo-1,2-dihydroisoquinolin-5-yl)-5-(trifluoromethyl)-1H-pyrazole-4-carboxamide]",> 15.1,> 15100,282
"Cn1nc(-n2ncc(C(=O)Nc3cnc(-n4nccn4)c(C#N)c3)c2C(F)(F)F)c2cccnc21 [Cpd 265, N-(5-cyano-6-(2H-1,2,3-triazol-2-yl)pyridin-3-yl)-1-(1-methyl-1H-pyrazolo[3,4-b]pyridin-3-yl)-5-(trifluoromethyl)-1H-pyrazole-4-carboxamide]",> 1.51,120,166
"COC(=O)c1ncc(NC(=O)c2cnn(-c3cccc4ncccc34)c2C(F)(F)F)cc1Cl [Cpd 258, methyl 3-chloro-5-(1-(quinolin-5-yl)-5-(trifluoromethyl)-1H-pyrazole-4-carboxamido)picolinate]",0.589,316,229
"O=C(Nc1cnc(-n2nccn2)c(Cl)c1)c1cnn(-c2nsc3ncccc23)c1C(F)(F)F [Cpd 279, N-(5-chloro-6-(2H-1,2,3-triazol-2-yl)pyridin-3-yl)-1-(isothiazolo[5,4-b]pyridin-3-yl)-5-(trifluoromethyl)-1H-pyrazole-4-carboxamide]",3.71,2750,126
"N#Cc1cnnn1-c1ncc(NC(=O)c2cnn(-c3cccc4ncccc34)c2C(F)(F)F)cc1Cl [Cpd 227, N-(5-chloro-6-(5-cyano-1H-1,2,3-triazol-1-yl)pyridin-3-yl)-1-(quinolin-5-yl)-5-(trifluoromethyl)-1H-pyrazole-4-carboxamide]",6.46,550,1150
"N#Cc1cc(NC(=O)c2cnn(-c3cc(N)nc4ccccc34)c2C(F)(F)F)cnc1-n1nccn1 [Cpd 329, 1-(2-aminoquinolin-4-yl)-N-(5-cyano-6-(2H-1,2,3-triazol-2-yl)pyridin-3-yl)-5-(trifluoromethyl)-1H-pyrazole-4-carboxamide]",1.66,1440,661
"O=C(Nc1cnc(-n2nccn2)c(Cl)c1)c1cnn(-c2ncnc3[nH]ncc23)c1C(F)(F)F [Cpd 222, N-(5-chloro-6-(2H-1,2,3-triazol-2-yl)pyridin-3-yl)-1-(1H-pyrazolo[3,4-d]pyrimidin-4-yl)-5-(trifluoromethyl)-1H-pyrazole-4-carboxamide]",3.31,575,1700

# Further lines, results first:
IC50 [1] [µM],IC50 [2] [nM],IC50 [3] [nM],Compound
> 15.1,> 15100,2570,"Cc1nc(-n2nccn2)c(Cl)cc1NC(=O)c1cnn(-c2cnc(C#N)c3sccc23)c1C(F)(F)F [Cpd 416, N-(5-chloro-2-methyl-6-(2H-1,2,3-triazol-2-yl)pyridin-3-yl)-1-(7-cyanothieno[2,3-c]pyridin-4-yl)-5-(trifluoromethyl)-1H-pyrazole-4-carboxamide]"
0.051,39,447,"O=C(Nc1cnc(-n2nccn2)c(Cl)c1)c1cnn(-c2cccc3nccc(C(F)F)c23)c1C(F)(F)F [Cpd 396, N-(5-chloro-6-(2H-1,2,3-triazol-2-yl)pyridin-3-yl)-1-(4-(difluoromethyl)quinolin-5-yl)-5-(trifluoromethyl)-1H-pyrazole-4-carboxamide]"
> 15.1,955,19,"N#Cc1ncc(-n2ncc(C(=O)Nc3cnc(-n4nccn4)c(Cl)c3)c2C(F)(F)F)c2ccccc12 [Cpd 414, N-(5-chloro-6-(2H-1,2,3-triazol-2-yl)pyridin-3-yl)-1-(1-cyanoisoquinolin-4-yl)-5-(trifluoromethyl)-1H-pyrazole-4-carboxamide]"
